According to patent US9650616B2, “Methods for increasing grain yield” (University of Florida Research Foundation, Inc., priority 2014, dated 2017):

Molecular target: T1, maize endosperm AGPase, large subunit variant GGR (Q96G, D161G, A443R; numbering of SEQ ID NO: 20) (Zea mays, UniProt P55241+Q84PF5, A443R/D161G/Q96G)
T1 sequence (P55241 46-516 A443R/D161G/Q96G): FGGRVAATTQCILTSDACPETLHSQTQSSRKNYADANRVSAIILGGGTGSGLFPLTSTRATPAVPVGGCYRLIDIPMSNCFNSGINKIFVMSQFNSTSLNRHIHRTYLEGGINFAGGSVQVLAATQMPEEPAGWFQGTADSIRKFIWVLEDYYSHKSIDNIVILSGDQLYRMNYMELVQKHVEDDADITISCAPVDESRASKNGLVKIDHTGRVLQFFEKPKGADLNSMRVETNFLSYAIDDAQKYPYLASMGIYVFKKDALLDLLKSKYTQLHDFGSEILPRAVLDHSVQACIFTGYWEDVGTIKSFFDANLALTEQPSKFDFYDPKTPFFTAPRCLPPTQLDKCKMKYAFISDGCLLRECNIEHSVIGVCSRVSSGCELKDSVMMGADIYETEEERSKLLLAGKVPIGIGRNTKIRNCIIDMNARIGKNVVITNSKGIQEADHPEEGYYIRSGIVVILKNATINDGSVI
T1 sequence (Q84PF5 1-474): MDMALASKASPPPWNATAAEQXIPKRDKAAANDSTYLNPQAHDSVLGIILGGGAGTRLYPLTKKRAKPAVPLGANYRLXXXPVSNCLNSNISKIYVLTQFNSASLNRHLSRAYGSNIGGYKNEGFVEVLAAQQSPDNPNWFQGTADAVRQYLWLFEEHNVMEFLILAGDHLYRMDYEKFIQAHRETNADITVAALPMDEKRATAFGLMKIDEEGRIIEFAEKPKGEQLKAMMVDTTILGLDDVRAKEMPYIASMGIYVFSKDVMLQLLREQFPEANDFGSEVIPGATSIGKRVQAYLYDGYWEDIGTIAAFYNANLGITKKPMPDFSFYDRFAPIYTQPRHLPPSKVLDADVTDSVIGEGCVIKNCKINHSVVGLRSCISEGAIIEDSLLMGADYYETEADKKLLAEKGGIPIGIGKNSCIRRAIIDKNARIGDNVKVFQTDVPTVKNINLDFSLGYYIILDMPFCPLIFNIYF
Test: Kinetic constants in the absence of 3-PGA, GGR
Assay type: biochemical
Description: Reactions were performed for 10 min and terminated by boiling. Blank mixtures contained everything except ATP.
Based on the kinetic results (Table 10) and catalytic properties at 55° C. (Table 10) both D161G and GGR were selected for a more detailed kinetic analysis. […] The GGR mutant was primarily chosen based on its increased catalytic rate at 37° C. and high performance at 55° C. Its high activity in the absence of 3-PGA was also paramount. The first kinetic parameters determined were the Michaelis constants, the catalytic rate (kcat) and the dissociation constant (Kia) for the E-ATP complex, in the absence of 3-PGA. […] For the wt maize enzyme, this activator primarily responds by reducing the Km for both substrates, with little effect on the reaction rate (Boehlein et al., 2013). […] The kinetic mechanism established ATP as the first substrate to bind, thus the activator is no longer necessary for this first step. […] This variant also conditions both heat stability and high activity in the absence of an activator.

Which kcat (ATP varied at fixed G-1-P) does the source give for `Nc1ncnc2c1ncn2[C@@H]1O[C@H](COP(=O)(O)OP(=O)(O)OP(=O)(O)O)[C@@H](O)[C@H]1O` [ATP] here?
The kcat was 72.4 s⁻¹.

And the Km (read-out: ATP Km)?
The Km was 100 µM.
